Values after ≈ are worked out from the molar mass of the structure shown.
Tests used:
[1] = Half-life in female C57BL/6 mouse at 1 mg/kg, iv measured after 0.083 hrs by LC-MS/MS analysis; conditions: in vivo
in vitro = conditions: CD-1, mouse, pooled liver microsomes
[2] = target: T1, 3-beta-hydroxysteroid-Delta(8),Delta(7)-isomerase (Mus musculus, UniProt P70245); experiment: Inhibition of EBP in mouse Oligodendrocyte precursor cell assessed as zymostenol accumulation by GCMS analysis
T1 sequence (P70245 whole entry): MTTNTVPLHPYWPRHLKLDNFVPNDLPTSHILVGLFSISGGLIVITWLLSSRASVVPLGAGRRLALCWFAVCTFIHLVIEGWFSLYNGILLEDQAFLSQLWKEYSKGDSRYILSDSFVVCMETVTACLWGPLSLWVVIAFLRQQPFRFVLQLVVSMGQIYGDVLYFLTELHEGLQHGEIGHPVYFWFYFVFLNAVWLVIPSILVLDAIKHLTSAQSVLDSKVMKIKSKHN

[3] = target: 3-beta-hydroxysteroid-Delta(8),Delta(7)-isomerase (Homo sapiens, UniProt Q15125); experiment: Inhibition of EBP in human Mesenchymal stem cells assessed as zymostenol accumulation by GCMS analysis
3-beta-hydroxysteroid-Delta(8),Delta(7)-isomerase (Homo sapiens, UniProt Q15125), sequence (Q15125 whole entry): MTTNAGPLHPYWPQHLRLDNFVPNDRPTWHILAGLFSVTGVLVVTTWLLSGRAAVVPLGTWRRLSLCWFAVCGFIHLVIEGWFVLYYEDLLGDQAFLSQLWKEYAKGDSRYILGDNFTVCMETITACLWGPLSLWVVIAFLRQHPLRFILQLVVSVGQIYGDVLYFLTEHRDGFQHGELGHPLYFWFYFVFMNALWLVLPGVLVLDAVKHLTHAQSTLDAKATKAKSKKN

[4] = Dissociation constant, pKa of compound
[5] = target: Voltage-gated inwardly rectifying potassium channel KCNH2 (Homo sapiens, UniProt Q12809); experiment: Inhibition of human ERG expressed in CHO cells by whole cell patch clamp recording
Voltage-gated inwardly rectifying potassium channel KCNH2, sequence (Q12809 whole entry): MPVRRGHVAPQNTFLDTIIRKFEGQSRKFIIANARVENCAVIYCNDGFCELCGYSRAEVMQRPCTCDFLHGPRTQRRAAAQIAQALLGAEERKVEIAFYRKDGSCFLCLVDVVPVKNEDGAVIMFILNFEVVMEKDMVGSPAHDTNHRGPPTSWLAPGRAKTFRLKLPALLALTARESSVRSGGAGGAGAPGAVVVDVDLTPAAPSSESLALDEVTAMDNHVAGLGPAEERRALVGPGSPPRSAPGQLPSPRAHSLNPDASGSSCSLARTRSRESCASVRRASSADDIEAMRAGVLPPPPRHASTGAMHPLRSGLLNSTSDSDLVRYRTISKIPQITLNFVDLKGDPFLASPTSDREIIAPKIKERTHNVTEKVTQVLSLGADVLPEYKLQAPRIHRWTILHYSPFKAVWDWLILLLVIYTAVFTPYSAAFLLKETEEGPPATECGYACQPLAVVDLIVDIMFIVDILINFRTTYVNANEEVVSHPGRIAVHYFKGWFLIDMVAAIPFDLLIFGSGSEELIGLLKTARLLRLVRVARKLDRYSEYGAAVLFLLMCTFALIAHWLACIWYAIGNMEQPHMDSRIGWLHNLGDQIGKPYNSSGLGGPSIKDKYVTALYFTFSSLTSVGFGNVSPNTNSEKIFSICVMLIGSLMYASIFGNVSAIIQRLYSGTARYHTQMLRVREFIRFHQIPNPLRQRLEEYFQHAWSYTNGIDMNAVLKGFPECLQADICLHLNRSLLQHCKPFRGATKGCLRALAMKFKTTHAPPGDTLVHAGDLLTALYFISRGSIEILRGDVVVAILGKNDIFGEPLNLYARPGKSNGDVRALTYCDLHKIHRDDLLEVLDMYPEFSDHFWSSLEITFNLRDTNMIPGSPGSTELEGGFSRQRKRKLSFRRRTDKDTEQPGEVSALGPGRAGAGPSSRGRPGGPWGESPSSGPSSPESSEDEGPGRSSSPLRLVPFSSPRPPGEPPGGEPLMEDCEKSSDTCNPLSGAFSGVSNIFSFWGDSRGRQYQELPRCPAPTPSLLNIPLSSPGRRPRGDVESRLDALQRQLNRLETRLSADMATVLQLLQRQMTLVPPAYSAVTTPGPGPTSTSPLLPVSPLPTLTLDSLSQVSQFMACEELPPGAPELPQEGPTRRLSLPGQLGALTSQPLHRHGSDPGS

[6] = Clearance in female C57BL/6 mouse at 1 mg/kg, iv measured after 0.083 hrs by LC-MS/MS analysis; conditions: in vivo
[7] = Volume of distribution at steady state in female C57BL/6 mouse at 1 mg/kg, iv measured after 0.083 hrs by LC-MS/MS analysis; conditions: in vivo
[8] = Unbound brain-to-plasma concentration ratio in female C57BL/6 mouse at 1 mg/kg, iv measured after 8 hrs by LC-MS/MS analysis
[9] = Half-life in female C57BL/6 mouse at 10 mg/kg, po measured after 24 hrs by LC-MS/MS analysis; conditions: in vivo
[10] = Unbound brain-to-plasma concentration ratio in female C57BL/6 mouse at 10 mg/kg, po measured after 8 hrs by LC-MS/MS analysis
[11] = Clearance in male Sprague-Dawley rat at 1 mg/kg, iv measured after 8 hrs by LC-MS/MS analysis; conditions: in vivo
[12] = Volume of distribution at steady state in male Sprague-Dawley rat at 1 mg/kg, iv measured after 8 hrs by LC-MS/MS analysis; conditions: in vivo
[13] = Half-life in male Sprague-Dawley rat at 1 mg/kg, iv measured after 8 hrs by LC-MS/MS analysis; conditions: in vivo
[14] = Unbound brain-to-plasma concentration ratio in male Sprague-Dawley rat at 1 mg/kg, iv measured after 8 hrs by LC-MS/MS analysis
[15] = Half-life in male Sprague-Dawley rat at 5 mg/kg, po measured after 8 hrs by LC-MS/MS analysis; conditions: in vivo
[16] = Unbound brain-to-plasma concentration ratio in male Sprague-Dawley rat at 5 mg/kg, po measured after 8 hrs by LC-MS/MS analysis
[17] = Protein binding in human plasma at 5 uM incubated for 6 hrs by equilibrium dialysis based HPLC analysis
[18] = Protein binding in Sprague-Dawley rat plasma at 5 uM incubated for 6 hrs by equilibrium dialysis based HPLC analysis
[19] = Protein binding in CD-1 mouse plasma at 5 uM incubated for 6 hrs by equilibrium dialysis based HPLC analysis
[20] = Kinetic solubility of compound in PBS at pH 7.4
[21] = Unbound brain-to-plasma concentration ratio in female C57BL/6 mouse at 0.2 mg/kg administered daily for 7 days and measured 8 hrs post last dose
in vivo [22] = conditions: female, C57BL/6, mouse, po, 10 mg/kg
in vivo [23] = conditions: male, Sprague-Dawley, rat, po, 5 mg/kg
in vivo [24] = conditions: female, C57BL/6, mouse, brain/plasma, 2 mg/kg
Description: Unbound brain-to-plasma concentration ratio in female C57BL/6 mouse at 2 mg/kg administered daily for 7 days and measured 8 hrs post last dose

MDR1 = experiment: in vitro; conditions: dog, MDCK-MDR1
BCRP = experiment: in vitro; conditions: dog

CCN1C(=O)N(c2ccc(Cl)cc2)C(=O)C12CCN(CC1CCOCC1)CC2
half-life at […] [1]: 5.7 h
CLhep predicted at 1 h, 1 µM (in vitro): 25 mL/min/kg

CC(C)N1C(=O)N(c2ccc(C(F)(F)F)cc2)C(=O)C12CCN(CC1CCOCC1)CC2
EC50 [2]: 315 nM
EC50 [3]: 669 nM
CLhep predicted at 1 h, 1 µM (in vitro): < 14 mL/min/kg

O=C1N(c2ccc(C(F)(F)F)cc2)CCC12CCN(CC1CCOCC1)CC2
EC50 [2]: 36 nM
EC50 [3]: 147 nM
CLhep predicted at 1 h, 1 µM (in vitro): 18 mL/min/kg

CCN1C(=O)N(c2cccc(C3CC3)c2)C(=O)C12CCN(CC1CCOCC1)CC2
half-life at […] [1]: 1.2 h
EC50 [2]: 9 nM
CLhep predicted at 1 h, 1 µM (in vitro): 47 mL/min/kg

CCN1C(=O)N(c2ccc(C)cc2)C(=O)C12CCN(CC1CCOCC1)CC2
half-life at […] [1]: 1.8 h
EC50 [2]: 18 nM
CLhep predicted at 1 h, 1 µM (in vitro): < 14 mL/min/kg

CCN1C(=O)N(c2ccc(C(F)(F)F)cc2)C(=O)C12CCN(C1CCCOCC1)CC2 (stereo not given)
EC50 [2]: 95 nM
pKa [4]: 8.1
IC50 [5]: 850 nM

CN1C(=O)N(c2ccc(C(F)(F)F)cc2)C(=O)C12CCN(CC1CCOCC1)CC2
EC50 [2]: 20 nM
CLhep predicted at 1 h, 1 µM (in vitro): < 14 mL/min/kg

CCN1C(=O)N(c2cc(Cl)cc(C#N)c2)C(=O)C12CCN(CC1CCOCC1)CC2
half-life at […] [1]: 0.8 h
EC50 [2]: 16 nM
CLhep predicted at 1 h, 1 µM (in vitro): 35 mL/min/kg

CCN1C(=O)N(c2ccc(C3CC3)cc2)C(=O)C12CCN(CC1CCOCC1)CC2
clearance at […] [6]: 17 mL/min/kg
Vd at […] [7]: 5.2 L/kg
half-life at […] [1]: 3.9 h
Kp uu at 8 h [8]: 0.77
half-life at 24 h [9]: 3.3 h
Kp uu at 8 h [10]: 0.72
clearance at 8 h [11]: 17 mL/min/kg
Vd at 8 h [12]: 6.2 L/kg
half-life at 8 h [13]: 4.4 h
Kp uu at 8 h [14]: 0.74
half-life at 8 h [15]: 5.1 h
Kp uu at 8 h [16]: 0.5
EC50 [2]: 8 nM
IC50 [5]: 8200 nM
fraction unbound at 6 h, 5 µM [17]: 0.291
fraction unbound at 6 h, 5 µM [18]: 0.3
fraction unbound at 6 h, 5 µM [19]: 0.364
solubility kinetic [20]: 64 µM (≈ 26.3 µg/mL)
Kp uu at 176 h [21]: 1.7
bioavailability at 24 h (in vivo [22]): 68%
bioavailability at 8 h (in vivo [23]): 42%
Kp uu at 176 h (in vivo [24]): 0.6
CLhep predicted at 1 h, 1 µM (in vitro): < 14 mL/min/kg
Papp A→B (MDR1): 15 ×10⁻⁶ cm/s
Papp A→B (BCRP): 20 ×10⁻⁶ cm/s

CCN1C(=O)N(c2ccc(C(F)(F)F)cc2)C(=O)C12CCN(C1CCOCC1)CC2
EC50 [2]: 364 nM
pKa [4]: 8.2
IC50 [5]: 4400 nM

CCN1C(=O)N(c2ccc(C(F)(F)F)cc2)C(=O)C12CCN(CC1CCS(=O)(=O)CC1)CC2
EC50 [2]: 43 nM
pKa [4]: 8.1
IC50 [5]: 73000 nM

O=C1NC2(CCN(CC3CCOCC3)CC2)C(=O)N1c1ccc(C(F)(F)F)cc1
EC50 [2]: 1000 nM
CLhep predicted at 1 h, 1 µM (in vitro): < 14 mL/min/kg

CCN1C(=O)N([C@H]2CC[C@H](C(F)(F)F)CC2)C(=O)C12CCN(CC1CCOCC1)CC2
clearance at […] [6]: 9.9 mL/min/kg
Vd at […] [7]: 5.1 L/kg
half-life at […] [1]: 5.7 h
Kp uu at 8 h [8]: 0.56
half-life at 24 h [9]: 5.3 h
Kp uu at 8 h [10]: 0.62
clearance at 8 h [11]: 9.2 mL/min/kg
Vd at 8 h [12]: 8.3 L/kg
half-life at 8 h [13]: 12 h
Kp uu at 8 h [14]: 0.6
Kp uu at 8 h [16]: 0.58
IC50 [5]: 8000 nM
fraction unbound at 6 h, 5 µM [17]: 0.296
fraction unbound at 6 h, 5 µM [18]: 0.278
fraction unbound at 6 h, 5 µM [19]: 0.376
solubility kinetic [20]: 29 µM (≈ 12.9 µg/mL)
bioavailability at 24 h (in vivo [22]): 47%
bioavailability at 8 h (in vivo [23]): 13%
CLhep predicted at 1 h, 1 µM (in vitro): < 14 mL/min/kg
Papp A→B (MDR1): 14 ×10⁻⁶ cm/s
Papp A→B (BCRP): 20 ×10⁻⁶ cm/s

CCN1C(=O)N(c2ccc(C(F)(F)F)cc2)C(=O)C12CCN(CC1(F)CCOCC1)CC2
EC50 [2]: 68 nM
pKa [4]: 5.7
IC50 [5]: 65000 nM

O=C1N(c2ccc(C(F)(F)F)cc2)C(=O)C2(CCN(CC3CCOCC3)CC2)N1C1CC1
CLhep predicted at 1 h, 1 µM (in vitro): < 14 mL/min/kg

CCN1C(=O)N(c2ccc(C(F)(F)F)cc2)C(=O)C12CCN(C(C)C1CCOCC1)CC2 (stereo not given)
EC50 [2]: 41 nM
pKa [4]: 8.2
IC50 [5]: 2900 nM

CCN1C(=O)N(c2ccc(C(F)(F)F)cc2)C(=O)C12CCN(CC1CCOCC1)CC2
clearance at […] [6]: 4 mL/min/kg
Vd at […] [7]: 7.4 L/kg
half-life at […] [1]: 62 h
Kp uu at 8 h [8]: 0.95
clearance at 8 h [11]: 6.3 mL/min/kg
Vd at 8 h [12]: 8.3 L/kg
half-life at 8 h [13]: 16 h
Kp uu at 8 h [14]: 1.59
EC50 [2]: 6 nM
pKa [4]: 7.9
IC50 [5]: 3000 nM
CLhep predicted at 1 h, 1 µM (in vitro): 17 mL/min/kg
